# Measured values from patent US7960384B2, “Dipeptidyl peptidase inhibitors” (Takeda Pharmaceutical Company Limited, priority 2006, dated 2011).
# pIC50: −log10 of the molar value.
# Molecular target: Human DPP-IV (Homo sapiens, UniProt P27487)
# Test: DPP-IV Assay (protease inhibition, AP-AFC substrate)
# Assay type: biochemical
# Description: Solutions of test compounds in varying concentrations (≦10 mM final concentration) were prepared in Dimethyl Sulfoxide (DMSO) and then diluted into assay buffer comprising: 20 mM Tris, pH 7.4; 20 mM KCl; and 0.1 mg/mL BSA. Human DPP-IV (0.1 nM final concentration) was added to the dilutions and pre-incubated for 10 minutes at ambient temperature before the reaction was initiated with A-P-7-amido-4-trifluoromethylcoumarin (AP-AFC; 10 μM final concentration). The total volume of the reaction mixture was 10-100 μL depending on assay formats used (384 or 96 well plates). The reaction was followed kinetically (excitation λ=400 nm; emission λ=505 nm) for 5-10 minutes or an end-point was measured after 10 minutes. Inhibition constants (IC50) were calculated from the enzyme progress curves using standard mathematical models.
# Sequence of Human DPP-IV (P27487 whole entry): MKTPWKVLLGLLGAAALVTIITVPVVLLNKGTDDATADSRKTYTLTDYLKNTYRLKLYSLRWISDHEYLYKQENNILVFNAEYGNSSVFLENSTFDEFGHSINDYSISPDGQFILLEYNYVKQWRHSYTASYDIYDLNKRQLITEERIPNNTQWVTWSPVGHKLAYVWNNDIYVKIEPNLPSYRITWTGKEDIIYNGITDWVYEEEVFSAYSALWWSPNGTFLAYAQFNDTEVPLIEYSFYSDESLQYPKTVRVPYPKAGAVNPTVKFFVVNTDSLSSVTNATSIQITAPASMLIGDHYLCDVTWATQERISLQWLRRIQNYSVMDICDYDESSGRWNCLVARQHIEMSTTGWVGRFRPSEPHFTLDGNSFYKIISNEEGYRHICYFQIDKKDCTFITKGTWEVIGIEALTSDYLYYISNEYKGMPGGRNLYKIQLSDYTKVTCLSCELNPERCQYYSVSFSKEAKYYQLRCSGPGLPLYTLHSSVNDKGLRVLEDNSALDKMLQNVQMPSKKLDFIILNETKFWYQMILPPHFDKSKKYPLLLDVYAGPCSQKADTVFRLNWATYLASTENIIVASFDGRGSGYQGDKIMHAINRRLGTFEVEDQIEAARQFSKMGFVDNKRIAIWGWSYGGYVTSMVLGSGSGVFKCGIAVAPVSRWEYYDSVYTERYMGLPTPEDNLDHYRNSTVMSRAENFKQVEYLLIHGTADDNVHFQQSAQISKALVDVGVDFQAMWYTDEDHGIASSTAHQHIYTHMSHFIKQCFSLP
smiles,measurement,setting,value
"COc1ccccc1-c1ccc2[nH]c(=O)c(=O)[nH]c2c1CN [Example 1, 5-Aminomethyl-6-(2-methoxy-phenyl)-1,4-dihydro-quinoxaline-2,3-dione]",pIC50,"DPP-IV inhibition, Human DPP-IV 0.1 nM, AP-AFC 10 μM",> 4.30
same,selectivity in protease inhibition assays,"tested in DPP-IV, FAPα, PREP and Tryptase assays",selective DPP-IV inhibitory activity
